The text below walks through data of article PMC6651024, “LIR Motif-Containing Hyperdisulfide β-Ginkgotide is Cytoprotective, Adaptogenic, and Scaffold-Ready” (Molecules, 2019).

“Also recorded” adds a separate entry of the source. Where a SMILES comes first, the peptide text is derived from it.

The subject of one data set is LC3B. The data set can be described thus: Western blot of autophagy marker LC3B (LC3B-I, LC3B-II) in SH-SY5Y cells. The class given is cell-based, human. The conditions noted are these: triplicates. The protocol: The LIR-containing proteins regulate autophagosome formation by interacting with the protein Atg8 (autophagy-related gene, Atg) family through their LIR sequences. […] The SH-SY5Y cells were cultured with or without β-gB1. The autophagy markers, Beclin-1 (BECN1), LC3B-I, and LC3B-II, were identified and quantified by western blot analysis. Beclin-1 plays an important role in regulating both autophagy and cell death, whereas LC3B is an important component of the autophagy pathway and the most widely used marker for autophagosomes. Two of the processed LC3B protein are LC3B-I and LC3B-II. LC3B-I is a truncated LC3B. In contrast, LC3B-II is a truncated and lipidated version of LC3B-I [28, 29]. Importantly, LC3B-II is centrally involved in the events of autophagosome membrane expansion and fusion.
(§1) Rat cardio-myoblast cells (H9c2) and […] neuron-like SH-SY5Y cells were purchased from ATCC and maintained in DMEM (Dulbecco’s modified eagle medium) medium supplemented with 10% fetal bovine serum (FBS), 10,000 U/mL of penicillin, and 10,000 µg/mL of streptomycin at 37 °C, 5% CO2.
A 25 µg equivalent quantity of each protein samples were resolved on a 10% and 15% SDS-PAGE gel accordingly and transferred onto a nitrocellulose membrane. Immunoblotting was performed using anti-protein antibodies against glyceraldehyde 3-phosphate dehydrogenase (GAPDH) (1:5000), LC3B (1:1500), Beclin-1 (1:1500), Caspase-3 (1:1500), and Caspase-9 (1:1500). Blots were developed with Clarity Max Western ECL blotting substrates. Protein bands were quantitated densitometrically using ImageJ software (ImageJ15.0b, Wayen Rasband, NIH, Bethesda, Maryland, USA), expressed relative to GAPDH, and normalized to the vehicle control cells. Statistical calculations and bar graphs were done using GraphPad Prism software (Version 6.01), and three individual experimental data sets were used for the calculation. Data are presented as means ± SD and compared by the Holm–Sidak multiple t-tests method. P-values pf less than 0.05 were considered significant.

Data set [1] has as its system SH-SY5Y cells. It counts as cell-based, mouse. The conditions noted are these: 48 h hypoxia, MTT. The protocol:
Autophagy is an integrated stress response that clears the subcellular damages. Previous studies have shown that such damages can be induced by hypoxia and hypoxia-reoxygenation stress. Clearing subcellular damages would increase survivability. In traditional medicine, G. biloba is used as an herbal remedy for acute ischemic stroke and post-stroke recovery. To examine the effects of β-gB1 in hypoxia stress, we used cardio-myoblast H9c2 and SH-SY5Y cells. Cells were cultured with or without β-gB1 and incubated in a hypoxic environment for 48 h before the assessment of cell survival by the MTT assay. […] Importantly, when the concentration of β-gB1 was reduced tenfold from 10 to 1 µM, a 22–24% increase of survivability was still observed in H9c2 and SH-SY5Y cells (Figure 3A–D). […]
Cells were cultured in DMEM with or without β-gB1/S-alkylated β-gB1 (β-gB1Alk) for 48 h under normoxia, hypoxia, and hypoxia-reoxygenation conditions. […] The culture medium was then aspirated, and purple formazan crystals were dissolved in DMSO for colorimetric quantification at 570 nm using a microplate reader with a reference wavelength of 630 nm. […]

The subject of data set [2] is SH-SY5Y cells. The data set can be described thus: MTT-based cell proliferation assay under normoxia, SH-SY5Y. The conditions noted are these: 10 µM peptide, 48 h, triplicates. The arrangement: species or system human.
Text: In addition, β-gB1 is non-toxic to Vero and BHK (baby hamster kidney) cell lines based on an MTT assay. […] LDH is a cytoplasmic enzyme which is rapidly released into the cell culture medium upon plasma membrane damage and is widely used as a marker for cytotoxicity. Thus, an LDH-release assay measures the level of plasma membrane damage to a cell population.
as §1
Cells were cultured in DMEM with or without β-gB1/S-alkylated β-gB1 (β-gB1Alk) for 48 h under normoxia, hypoxia, and hypoxia-reoxygenation conditions. Phosphate-buffered saline (PBS) was used as a vehicle control. After 48 h, MTT (3-(4,5-dimethylthiazol-2-yl)-2,5-diphenyltetrazolium bromide) reagent was added with a final concentration of 0.5 mg/mL, and it was incubated at 37 °C for 2 h. The culture medium was then aspirated, and purple formazan crystals were dissolved in DMSO for colorimetric quantification at 570 nm using a microplate reader with a reference wavelength of 630 nm. […]

The next data set has as its system Candida tropicalis. The conditions noted are these: concentrations up to 100 µM; cited from earlier work.

Turning to `CC[C@H](C)[C@@H]1NC(=O)[C@@H]2CSSC[C@H](NC(=O)CNC(=O)[C@@H](NC(=O)[C@H](CCC(=O)O)NC(=O)[C@@H](N)Cc3ccc(O)cc3)[C@@H](C)O)C(=O)N[C@@H](CCCCN)C(=O)N[C@@H](CCCNC(=N)N)C(=O)N[C@H]3CSSC[C@@H](C(=O)O)NC(=O)[C@H](CSSC[C@H](NC3=O)C(=O)N[C@@H](Cc3ccc(O)cc3)C(=O)N[C@@H](CC(C)C)C(=O)N[C@@H](CC(=O)O)C(=O)N[C@@H](CCC(=O)O)C(=O)N[C@@H](Cc3ccc(O)cc3)C(=O)NCC(=O)N2)NC(=O)[C@H](CCCNC(=N)N)NC1=O` [β-gB1] (HELM PEPTIDE1{Y.E.T.G.C.K.R.C.C.Y.L.D.E.Y.G.C.I.R.C.C}$PEPTIDE1,PEPTIDE1,5:R3-16:R3|PEPTIDE1,PEPTIDE1,8:R3-20:R3|PEPTIDE1,PEPTIDE1,9:R3-19:R3$$$V2.0; N-terminus and C-terminus assumed), the “Increase of LC3B-II/LC3B-I ratio compared to control” value with LC3B (western blot band intensity) is reported as “about 3 fold”. Further, the “Increase of expression of LC3B-II isoform vs control” value with LC3B (western blot densitometry relative to GAPDH, normalized to vehicle control, mean) was 2.8 fold. Moreover, in the data set on LC3B (western blot densitometry relative to GAPDH, normalized to vehicle control), the “Expression of LC3B-I isoform vs control” value is listed as “did not alter the expression”. Also, in the data set with SH-SY5Y cells [1] (1 µM peptide, range printed jointly for H9c2 and SH-SY5Y), the “Increase of cell survivability under hypoxia” value is 22–24%. The “Cytoprotective effect under hypoxia (in words)” value in the data set on SH-SY5Y cells [1] (10 µM peptide, compared with 37% in H9c2) is reported as “comparable cytoprotective effect”. For the same molecule, the “Cell viability (growth or death) under normoxia” value in the data set with SH-SY5Y cells [2] was “No change in cell viability; also recorded: no significant effect on the growth or death”. The Antimicrobial effect entry with Candida tropicalis is listed as “does not exhibit an antimicrobial effect”.
